# In patent publication US5432270A, “DNA encoding tracheal antimicrobial peptides” (priority 1993, dated 1995):
# How the values were obtained:
# Experiment in all cases: Minimal inhibitory concentration in 0.25x TSB, microtiter plates
# Type in all cases: cell-based
# [1] = system: Staphylococcus aureus (ATCC 25923); details: 2.5 × 10^4 microbe in 0.25× TSB, overnight 37° C.
# Method: (§1) Antimicrobial activity of TAP (SEQ ID NO: 1) and
# (§2) Magainin 2-NH2 (SEQ ID NO: 6). Minimal inhibitory
# (§3) concentrations were determined by incubating approximately
# (§4) 3.125 μg/ml of the appropriate peptide.
# [2] = system: Pseudomonas aeruginosa (ATCC 27853); details: 2.5 × 10^4 microbe in 0.25× TSB, overnight 37° C.
# Method: as §1, §2, §3, §4
# [3] = system: Candida albicans (ATCC 14053)
# Method: as §1, §2, §3, §4
# [4] = system: Klebsiella pneumonia (ATCC 13883)
# Method: as §1, §2, §3, §4
# [5] = system: Escherichia coli strain D31; details: E. coli
# Method: as §1, §2, §3, §4
# *strain D31 (Steiner, H. D., Hultmark, A., supra, (1981)
substance,measurement,setting,value
"TAP: 38-residue cysteine-rich antimicrobial peptide purified from bovine tracheal mucosa, SEQ ID NO:1 (NPVSCVRNKGICVPIRCPGSMKQIGTCVGRAVKCCRKK)",Minimal inhibitory concentration,[1],25 to 50 µg/mL
same,Minimal inhibitory concentration,[2],25 to 50 µg/mL
same,Antimicrobial activity in vitro (in words),[3]; C. albicans,significant antimicrobial activity
same,Minimal inhibitory concentration,"[3]; Candida albicans ATCC 14053, 2.5 × 10^4 microbe in 0.25× TSB, overnight 37° C.",6.25 to 12.5 µg/mL
same,Antimicrobial activity in vitro (in words),[4]; K. pneumonia,most active
same,Minimal inhibitory concentration,"[4]; Klebsiella pneumonia ATCC 13883, 2.5 × 10^4 microbe in 0.25× TSB, overnight 37° C.",12.5 to 25 µg/mL
same,Antimicrobial activity in vitro (in words),[5],most active
